{"source": "patent US9764001B2", "about": "“Target for diagnosis and treatment of diabetes and cardiovascular diseases” (The Regents of the University of California, priority 2012, dated 2017)", "molecules": {"B1": {"name": "human FKN: human fractalkine used on isolated human islets (100 or 400 ng/ml) (protein, UniProt P78423 25-397, looked up)", "Fractalkine": "QHHGVTKCNITCSKMTSKIPVALLIHYQQNQASCGKRAIILETRQHRLFCADPKEQWVKDAMQHLDRQAAALTRNGGTFEKQIGEVKPRTTPAAGGMDESVVLEPEATGESSSLEPTPSSQEAQRALGTSPELPTGVTGSSGTRLPPTPKAQDGGPVGTELFRVPPVSTAATWQSSAPHQPGPSLWAEAKTSEAPSTQDPSTQASTASSPAPEENAPSEGQRVWGQGQSPRPENSLEREEMGPVPAHTDAFQDWGPGSMAHVSVVPVSSEGTPSREPVASGSWTPKAEEPIHATMDPQRLGVLITPVPDAQAATRRQAVGLLAFLGLLFCLGVAMFTYQSLQGCPRKMAGEMAEGLRYIPRSCGSNSYVLVPV"}}, "key": {"primary mouse islets": {"system": "primary mouse islets", "test": "Static GSIS test using primary mouse islets", "assay_type": "cell-based", "conditions": "FKN 100 ng/ml; PTX 250 ng/ml, Wortmannin 10 μM, PD98059 50 μM", "procedure": "(FIGS. 6A-1 to 6A-4) GSIS test using primary mouse islets with or without pertussis toxin (PTX; 250 ng/ml), Wortmannin (Wort; 10 μM), or PD98059 (50 μM), in the presence or absence of FKN (100 ng/ml). Mean+/−SEM, n=6 per group.\nIsolated mouse islets were cultured overnight in mouse islet media (DMEM containing 1 g/L glucose, 10% v/v FBS, 0.1% v/v Penicillin/Streptomycin)."}, "Min6 cells [1]": {"system": "Min6 cells", "test": "ERK phosphorylation western blot in Min6 cells", "assay_type": "cell-based, mouse", "conditions": "PTX 250 ng/ml pre-treatment 15 min", "description": "FIG. 14. FKN stimulates ERK phosphorylation in a PTX-sensitive manner (related to FIGS. 6A-1 to 6Q-4). Min6 cells were pre-treated with DMSO (control), U0126 (10 μM), or PTX (250 ng/ml) for 15 min, and then incubated with or without FKN (100 ng) for 15 min. Cells were harvested and subjected to western blot."}, "Min6 cells [2]": {"system": "Min6 cells", "test": "Intracellular calcium level measurement (fura-2) in Min6 cells", "assay_type": "cell-based, mouse", "procedure": "(FIGS. 6C to 6I) Intracellular calcium level in Min6 mouse beta cells in the presence or absence of glucose (FIG. 6C, with glucose; FIG. 6D, without glucose), nimodipine (10 μM) (FIG. 6E), control antibody (FIG. 6F), anti-CX3CR1 neutralizing antibody (FIG. 6G), PTX (250 ng/ml) (FIG. 6H), or U0126 (10 μM) (FIG. 6I). Mean+/−SEM.\n(FIGS. 15A-1 to 15B-3) Intracellular calcium level in Min6 cells. Min6 cells were incubated in 2.8 mM glucose media with or without U0126 (10 μM) for 30 minutes, and then subjected to intracellular calcium measurement in the presence or absence of arginine (10 mM) and/or high glucose (16.7 mM) challenge. (FIGS. 15A-1 to 15A-3) Intracellular calcium level with arginine treatment. (FIGS. 15B-1 to 15B-3) Intracellular calcium level with arginine plus high glucose (16.7 mM) treatment. Area under the curve for first 90 (FIG. 15B-1) or 60 (FIG. 15B-2) seconds was graphed in FIG. 15B-3.\nThe Cytoplasmic free calcium ion concentration in Min6 cells was measured by fura-2 fluorescence ratio digital imaging. Briefly, Min6 cells, grown on coverslips, were loaded with 5 μM fura-2 AM [dissolved in 0.01% Pluronic F-127 plus 0.1% DMSO in KRB] at room temperature for 60 min and then washed in fresh KRB for 30 min. The coverslips with Min6 cells were mounted in a perfusion chamber on a Nikon microscope stage."}, "Min6 cells [3]": {"system": "Min6 cells", "test": "GSIS test using Min6 cells", "assay_type": "cell-based, mouse", "conditions": "for glucose- and arginine plus glucose-stimulated insulin secretion: U0126 10 μM, arginine 10 mM, glucose 16.7 mM", "procedure": "(FIG. 6B) GSIS test using Min6 cells with or without FKN (100 ng/ml) or U0126 (10 μM). Mean+/−SEM.\nMin6 cells were incubated in 2.8 mM glucose media with or without U0126 (10 μM) for 30 minutes, and then subjected to intracellular calcium measurement in the presence or absence of arginine (10 mM) and/or high glucose (16.7 mM) challenge."}, "Min6 cells [4]": {"system": "Min6 cells", "test": "Palmitate-induced ICER-1 and beta cell gene expression in Min6 cells (quantitative realtime RT-PCR)", "assay_type": "cell-based, mouse", "conditions": "palmitate 0.4 mM, FKN 100 ng/ml, U0126 10 μM, 48 h", "procedure": "Min6 cells were incubated with palmitate (Pal; 0.4 mM) in the presence or absence of FKN (100 ng/ml) or U0126 (10 μM). 48 h later, cells were harvested and subjected to quantitative realtime RT-PCR."}, "human islets": {"system": "human islets", "test": "Static GSIS studies using human islets", "assay_type": "cell-based"}}, "note": "“Also recorded” adds a separate entry of the source. Like-named read-outs stand apart in the source and are kept apart here."}
{"molecule": "COc1cccc(-c2cc(=O)c3ccccc3o2)c1N", "note": "[PD98059]", "values": [{"measurement": "effect of inhibitor on FKN-stimulated insulin secretion", "setting": "primary mouse islets", "result": "inhibited"}]}
{"molecule": "pertussis toxin", "values": [{"measurement": "effect of inhibitor on FKN-stimulated insulin secretion", "setting": "primary mouse islets", "result": "inhibited"}, {"measurement": "sensitivity of FKN-stimulated ERK phosphorylation to inhibitor", "setting": "Min6 cells [1]", "result": "PTX-sensitive"}, {"measurement": "effect on FKN-induced intracellular calcium increase", "setting": "Min6 cells [2]; PTX 250 ng/ml, U0126 10 μM, anti-CX3CR1 antibody vs control antibody", "result": "blocked"}]}
{"molecule": "N#CC(=C(/N)Sc1ccccc1N)/C(C#N)=C(\\N)Sc1ccccc1N", "note": "[U0126]", "values": [{"measurement": "effect on FKN potentiation of glucose and GLP1-induced insulin secretion", "setting": "Min6 cells [3]; FIG. 6B: U0126 10 μM, FKN 100 ng/ml", "result": "suppressed"}, {"measurement": "glucose- and arginine plus glucose-stimulated insulin secretion", "setting": "Min6 cells [3]", "result": "reduces"}, {"measurement": "glucose- and arginine plus glucose-stimulated insulin secretion", "setting": "Min6 cells [3]; listed as MEK inhibitor", "result": "attenuated"}, {"measurement": "effect of MEK inhibitor on FKN effects on ICER-1, NeuroD, PDX-1 and Glut2 expression", "setting": "Min6 cells [4]", "result": "abolished"}, {"measurement": "arginine plus glucose-stimulated intracellular calcium increase", "setting": "Min6 cells [2]", "result": "attenuated; also recorded: reduces"}, {"measurement": "effect on FKN-induced intracellular calcium increase", "setting": "Min6 cells [2]", "result": "blocked"}]}
{"molecule": "B1", "values": [{"measurement": "increase in GSIS", "setting": "human islets; at the maximal concentration (100 or 400 ng/ml tested)", "result": 65, "unit": "%"}, {"measurement": "GSIS dose response", "setting": "human islets; human FKN 100 or 400 ng/ml", "result": "dose responsive increase"}]}
